# Columns and labels:
# Cytochrome P450 1A2 = target: T1, Cytochrome P450 1A2 (Homo sapiens, UniProt P05177); assay: Inhibition of CYP1A2; assay type: ADME
# T1 sequence (P05177 whole entry): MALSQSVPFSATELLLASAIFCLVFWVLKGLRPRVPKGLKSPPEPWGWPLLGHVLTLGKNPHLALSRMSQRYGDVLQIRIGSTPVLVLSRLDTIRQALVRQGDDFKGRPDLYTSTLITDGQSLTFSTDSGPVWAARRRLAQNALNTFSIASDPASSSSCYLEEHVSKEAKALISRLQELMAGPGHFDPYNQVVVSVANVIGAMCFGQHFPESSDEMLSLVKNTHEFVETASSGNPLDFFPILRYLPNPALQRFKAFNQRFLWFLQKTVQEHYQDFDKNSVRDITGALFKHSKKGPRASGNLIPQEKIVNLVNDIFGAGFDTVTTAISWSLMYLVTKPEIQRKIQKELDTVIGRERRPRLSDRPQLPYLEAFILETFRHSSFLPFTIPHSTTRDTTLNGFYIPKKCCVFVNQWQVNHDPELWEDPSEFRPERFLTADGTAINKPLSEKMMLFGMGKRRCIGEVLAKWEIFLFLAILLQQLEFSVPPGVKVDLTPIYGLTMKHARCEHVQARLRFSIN
# Cytochrome P450 2C19 = Cytochrome P450 2C19 (Homo sapiens, UniProt P33261); assay: Inhibition of CYP2C19; assay type: ADME
# Sequence of Cytochrome P450 2C19 (P33261 whole entry): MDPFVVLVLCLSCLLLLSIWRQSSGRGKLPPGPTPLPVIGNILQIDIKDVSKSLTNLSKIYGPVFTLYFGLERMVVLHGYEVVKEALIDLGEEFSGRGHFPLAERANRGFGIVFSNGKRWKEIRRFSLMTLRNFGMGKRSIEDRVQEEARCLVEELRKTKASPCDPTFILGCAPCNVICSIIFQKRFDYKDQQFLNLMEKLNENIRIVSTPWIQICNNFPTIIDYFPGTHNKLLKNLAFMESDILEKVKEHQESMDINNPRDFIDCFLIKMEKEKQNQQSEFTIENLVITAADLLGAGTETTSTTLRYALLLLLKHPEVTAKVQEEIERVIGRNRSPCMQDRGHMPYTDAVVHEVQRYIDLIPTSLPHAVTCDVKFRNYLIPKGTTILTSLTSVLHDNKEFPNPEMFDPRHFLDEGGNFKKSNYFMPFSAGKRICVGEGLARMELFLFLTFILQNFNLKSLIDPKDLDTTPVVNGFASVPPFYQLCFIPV
# Cytochrome P450 2C9 = Cytochrome P450 2C9 (Homo sapiens, UniProt P11712); assay: Inhibition of CYP2C9; assay type: ADME
# Sequence of Cytochrome P450 2C9 (P11712 whole entry): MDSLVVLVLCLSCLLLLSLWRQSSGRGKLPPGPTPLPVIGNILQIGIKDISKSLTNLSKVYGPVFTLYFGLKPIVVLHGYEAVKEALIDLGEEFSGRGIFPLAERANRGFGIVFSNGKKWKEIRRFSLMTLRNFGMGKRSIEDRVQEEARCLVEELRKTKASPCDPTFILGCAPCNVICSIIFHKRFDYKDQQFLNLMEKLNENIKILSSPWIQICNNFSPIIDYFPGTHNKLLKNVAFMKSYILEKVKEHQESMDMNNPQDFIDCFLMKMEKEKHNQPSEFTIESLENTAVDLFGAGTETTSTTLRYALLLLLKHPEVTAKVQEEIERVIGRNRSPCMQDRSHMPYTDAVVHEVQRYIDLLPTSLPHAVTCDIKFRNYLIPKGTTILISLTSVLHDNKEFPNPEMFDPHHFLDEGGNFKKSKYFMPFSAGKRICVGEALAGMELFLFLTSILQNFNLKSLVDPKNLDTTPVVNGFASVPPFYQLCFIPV
# Cytochrome P450 2D6 = Cytochrome P450 2D6 (Homo sapiens, UniProt P10635); assay: Inhibition of CYP2D6; assay type: ADME
# Sequence of Cytochrome P450 2D6 (P10635 whole entry): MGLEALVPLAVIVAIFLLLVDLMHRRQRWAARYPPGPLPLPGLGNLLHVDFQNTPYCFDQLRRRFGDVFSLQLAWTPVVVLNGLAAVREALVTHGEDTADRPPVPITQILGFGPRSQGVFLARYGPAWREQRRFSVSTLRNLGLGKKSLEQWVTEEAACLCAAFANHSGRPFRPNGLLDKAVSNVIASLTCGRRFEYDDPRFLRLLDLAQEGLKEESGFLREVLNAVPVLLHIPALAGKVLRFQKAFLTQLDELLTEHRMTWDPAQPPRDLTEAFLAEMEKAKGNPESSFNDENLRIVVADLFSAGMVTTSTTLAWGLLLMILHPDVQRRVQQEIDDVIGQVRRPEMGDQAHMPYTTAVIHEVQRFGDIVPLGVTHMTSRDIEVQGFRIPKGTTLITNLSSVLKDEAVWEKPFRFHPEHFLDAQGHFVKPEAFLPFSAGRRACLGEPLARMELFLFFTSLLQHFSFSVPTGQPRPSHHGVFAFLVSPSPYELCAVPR
# Cytochrome P450 3A4 = Cytochrome P450 3A4 (Homo sapiens, UniProt P08684)
# Sequence of Cytochrome P450 3A4 (P08684 whole entry): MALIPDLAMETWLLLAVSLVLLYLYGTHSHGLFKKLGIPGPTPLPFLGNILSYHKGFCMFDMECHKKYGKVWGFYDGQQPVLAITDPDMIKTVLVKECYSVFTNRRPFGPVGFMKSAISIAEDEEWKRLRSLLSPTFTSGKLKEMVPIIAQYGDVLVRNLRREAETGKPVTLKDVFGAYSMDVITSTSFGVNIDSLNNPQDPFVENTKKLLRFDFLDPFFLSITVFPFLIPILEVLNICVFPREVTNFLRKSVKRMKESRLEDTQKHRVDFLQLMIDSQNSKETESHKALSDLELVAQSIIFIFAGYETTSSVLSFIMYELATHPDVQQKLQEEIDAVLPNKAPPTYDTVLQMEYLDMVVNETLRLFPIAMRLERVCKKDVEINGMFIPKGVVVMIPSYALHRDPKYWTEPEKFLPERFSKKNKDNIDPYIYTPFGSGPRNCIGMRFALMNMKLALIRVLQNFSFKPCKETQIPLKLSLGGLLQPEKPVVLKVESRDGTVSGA
# [1] = Inhibition of TNF-induced NF-kappaB activation in human A549 cells after 15 hrs; settings: for IC50: Homo sapiens, A549, 15 h, read-out: pIC50 (converted); for pIC50: a549
# Albumin = Albumin (Homo sapiens, UniProt P02768); assay: Binding affinity to human serum albumin by fast gradient HPLC; assay type: ADME; settings: isolated protein
# Sequence of Albumin (P02768 whole entry): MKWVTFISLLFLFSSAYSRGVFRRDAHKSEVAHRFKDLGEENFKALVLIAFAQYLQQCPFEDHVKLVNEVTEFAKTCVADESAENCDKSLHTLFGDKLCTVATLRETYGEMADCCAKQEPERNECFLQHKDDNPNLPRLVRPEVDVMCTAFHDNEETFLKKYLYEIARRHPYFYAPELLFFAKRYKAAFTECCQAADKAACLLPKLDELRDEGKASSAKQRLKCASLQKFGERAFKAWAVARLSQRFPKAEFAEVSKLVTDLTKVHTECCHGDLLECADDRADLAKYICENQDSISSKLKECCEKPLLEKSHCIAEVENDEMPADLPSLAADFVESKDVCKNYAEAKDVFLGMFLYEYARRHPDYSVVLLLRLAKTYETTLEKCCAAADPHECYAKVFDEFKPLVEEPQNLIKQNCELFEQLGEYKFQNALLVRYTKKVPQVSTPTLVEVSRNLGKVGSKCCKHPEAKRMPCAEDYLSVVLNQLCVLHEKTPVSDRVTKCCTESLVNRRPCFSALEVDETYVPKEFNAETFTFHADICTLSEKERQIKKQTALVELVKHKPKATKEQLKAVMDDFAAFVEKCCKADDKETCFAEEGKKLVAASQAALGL
# [2] = Protein binding in human plasma by ultrafiltration; assay type: ADME, cell-free; settings: read-out: PPB (converted)
# A549 = assay: Inhibition of TNF-induced NFkappaB activation in human A549 cells after 15 hrs relative to Dexamethasone; assay type: cell-based; parameters: scale not given: the % may be the effect or the level left
# Glucocorticoid receptor [3] = target: T2, Glucocorticoid receptor (Homo sapiens, UniProt P04150)
# T2 sequence (P04150 whole entry): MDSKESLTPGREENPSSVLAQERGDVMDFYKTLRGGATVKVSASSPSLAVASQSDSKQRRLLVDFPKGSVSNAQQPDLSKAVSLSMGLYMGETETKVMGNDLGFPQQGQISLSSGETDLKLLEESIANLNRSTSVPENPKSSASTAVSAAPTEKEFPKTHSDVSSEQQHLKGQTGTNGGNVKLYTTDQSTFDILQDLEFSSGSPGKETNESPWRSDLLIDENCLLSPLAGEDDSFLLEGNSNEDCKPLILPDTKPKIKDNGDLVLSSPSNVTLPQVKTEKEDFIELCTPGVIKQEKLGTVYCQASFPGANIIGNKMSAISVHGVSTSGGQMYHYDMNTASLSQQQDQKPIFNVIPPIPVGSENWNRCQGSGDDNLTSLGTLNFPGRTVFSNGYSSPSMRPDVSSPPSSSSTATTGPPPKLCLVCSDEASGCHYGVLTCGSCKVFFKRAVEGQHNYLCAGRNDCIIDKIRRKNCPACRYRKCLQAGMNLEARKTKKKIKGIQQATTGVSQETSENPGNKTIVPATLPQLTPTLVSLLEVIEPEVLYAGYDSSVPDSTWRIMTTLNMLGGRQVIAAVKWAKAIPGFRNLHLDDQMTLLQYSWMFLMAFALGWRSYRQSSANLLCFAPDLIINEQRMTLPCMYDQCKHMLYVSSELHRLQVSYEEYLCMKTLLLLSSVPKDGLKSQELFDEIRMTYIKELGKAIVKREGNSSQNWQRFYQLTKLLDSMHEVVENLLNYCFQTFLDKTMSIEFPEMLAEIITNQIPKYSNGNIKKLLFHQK
# Description: Displacement of fluorescent labelled Dexamethasone from glucocorticoid receptor
# Glucocorticoid receptor [4] = target: T2, Glucocorticoid receptor; remark: listed apart in the source
# Description: Agonist activity at human glucocorticoid receptor in human A549 cells assessed as transcriptional activity by MMTV luciferase reporter gene assay
# [5] = Clearance in Sprague-Dawley rat at 1 mg/kg, iv and 1 mg/kg, po; assay type: ADME, organism-based; settings: in vivo
# [6] = Volume of distribution at steady state in Sprague-Dawley rat at 1 mg/kg, iv and 1 mg/kg, po; assay type: ADME, organism-based; settings: in vivo, read-out: Vdss
# [7] = Oral bioavailability in Sprague-Dawley rat at 1 mg/kg; assay type: ADME, organism-based; settings: in vivo
Structure (SMILES),IC50 [1] [nM],Activity (A549) [%],IC50 (Glucocorticoid receptor [3]) [nM],EC50 (Glucocorticoid receptor [4]) [nM],other results
CCN(CC(O)(CNC(=O)c1cnn(-c2ccc(F)cc2)c1N)C(F)(F)F)C(=O)c1ccccc1Cl (stereo in doubt; 13d) [listing 1 of 2 here],–,–,–,–,IC50 (Cytochrome P450 1A2): 100000 nM; IC50 (Cytochrome P450 2C19): 8000 nM; IC50 (Cytochrome P450 2C9): 4000 nM; IC50 (Cytochrome P450 2D6): 27000 nM; IC50 (Cytochrome P450 3A4): 2000 nM
CCN(CC(O)(CNC(=O)c1cnn(-c2ccc(F)cc2)c1N)C(F)(F)F)C(=O)c1ncccc1Cl (stereo not given) [listing 1 of 2 here],10,–,–,–,IC50 (Cytochrome P450 1A2): 100000 nM; IC50 (Cytochrome P450 2C19): 100000 nM; IC50 (Cytochrome P450 2C9): 14000 nM; IC50 (Cytochrome P450 2D6): 100000 nM; Activity (Albumin): 83%; fraction unbound [2]: 0.15; IC50 (Cytochrome P450 3A4): 4000 nM
CCN(CC(O)(CNC(=O)c1cnn(-c2ccc(F)cc2)c1N)C(F)(F)F)C(=O)c1ccccc1F (stereo not given),12.6,98,12.6,20,–
CCN(CC(O)(CNC(=O)c1cnn(-c2ccc(F)cc2)c1N)C(F)(F)F)C(=O)c1c(F)cccc1F (stereo not given),2.51,104,7.94,7.94,IC50 (Cytochrome P450 1A2): 100000 nM; IC50 (Cytochrome P450 2C19): 18000 nM; IC50 (Cytochrome P450 2C9): 8000 nM; IC50 (Cytochrome P450 2D6): 74000 nM; Activity (Albumin): 93%; fraction unbound [2]: 0.03; clearance [5]: 27 mL/min/kg; Vd [6]: 2.8 L/kg; bioavailability [7]: 36%; IC50 (Cytochrome P450 3A4): 2000 nM
CN(CC(O)(CNC(=O)c1cnn(-c2ccc(F)cc2)c1N)C(F)(F)F)C(=O)c1c(F)cccc1F (racemic),50.1,95,79.4,251,IC50 (Cytochrome P450 1A2): 100000 nM; IC50 (Cytochrome P450 2C19): 49000 nM; IC50 (Cytochrome P450 2C9): 10000 nM; IC50 (Cytochrome P450 2D6): 36000 nM; IC50 (Cytochrome P450 3A4): 100000 nM
CCN(CC(O)(CNC(=O)c1cnn(-c2ccc(F)cc2)c1N)C(F)(F)F)C(=O)c1ncccc1Cl (stereo not given) [listing 2 of 2 here],–,99,–,–,–
CCN(CC(O)(CNC(=O)c1cnn(-c2ccc(F)cc2)c1N)C(F)(F)F)C(=O)c1ccccc1 (racemic) [listing 1 of 2 here],–,–,50.1,50.1,pIC50 [1]: 7.3; clearance [5]: 21 mL/min/kg; Vd [6]: 2.5 L/kg; bioavailability [7]: 12%
CCN(CC(O)(CNC(=O)c1cnn(-c2ccc(F)cc2)c1N)C(F)(F)F)C(=O)c1ccccc1S(C)(=O)=O (stereo not given) [listing 1 of 2 here],–,99,–,–,–
C[C@]12C=CC(=O)C=C1CC[C@@H]1[C@@H]2[C@@H](O)C[C@@]2(C)[C@H]1CC[C@]2(O)C(=O)CO [PREDNISOLONE],10,100,–,–,–
CCN(CC(O)(CNC(=O)c1cnn(-c2ccc(F)cc2)c1N)C(F)(F)F)C(=O)c1cccc(F)c1Cl (racemic),20,92,7.94,50.1,–
CCN(CC(O)(CNC(=O)c1cnn(-c2ccc(F)cc2)c1N)C(F)(F)F)C(=O)c1ccccc1 (stereo in doubt; 13b),–,–,126,> 6310,pIC50 [1]: < 5
CCN(CC(O)(CNC(=O)c1cnn(-c2ccc(F)cc2)c1N)C(F)(F)F)C(=O)c1ccccc1S(C)(=O)=O (stereo not given) [listing 2 of 2 here],20,–,63.1,158,IC50 (Cytochrome P450 1A2): > 40000 nM; IC50 (Cytochrome P450 2C19): 87000 nM; IC50 (Cytochrome P450 2C9): 23000 nM; IC50 (Cytochrome P450 2D6): 96000 nM; Activity (Albumin): 81%
CCN(CC(O)(CNC(=O)c1cnn(-c2ccc(F)cc2)c1N)C(F)(F)F)C(=O)c1ccccc1 (stereo in doubt; 13c) [listing 1 of 2 here],–,94,–,–,–
CCN(CC(O)(CNC(=O)c1cnn(-c2ccc(F)cc2)c1N)C(F)(F)F)C(=O)c1ccccc1 (stereo in doubt; 13c) [listing 2 of 2 here],–,–,12.6,25.1,pIC50 [1]: 8
CCN(CC(O)(CNC(=O)c1cnn(-c2ccc(F)cc2)c1N)C(F)(F)F)C(=O)c1ccccc1Cl (stereo in doubt; 13d) [listing 2 of 2 here],–,95,–,–,–
CCN(CC(O)(CNC(=O)c1cnn(-c2ccc(F)cc2)c1N)C(F)(F)F)C(=O)c1c(F)cccc1S(C)(=O)=O (racemic),10,103,50.1,25.1,clearance [5]: 9 mL/min/kg; Vd [6]: 2.6 L/kg; bioavailability [7]: 62%

Structure (SMILES),IC50 [1] [nM],Activity (A549) [%],IC50 (Glucocorticoid receptor [3]) [nM],EC50 (Glucocorticoid receptor [4]) [nM],other results
CCN(CC(O)(CNC(=O)c1cnn(-c2ccc(F)cc2)c1N)C(F)(F)F)C(=O)c1ccc2[nH]ccc2c1 (stereo not given),1,100,6.31,3.16,–
CCN(CC(O)(CNC(=O)c1cnn(-c2ccc(F)cc2)c1N)C(F)(F)F)C(=O)c1ccccc1Cl (stereo in doubt; 13e) [listing 1 of 2 here],–,75,–,–,–
CCN(CC(O)(CNC(=O)c1cnn(-c2ccc(F)cc2)c1N)C(F)(F)F)C(=O)c1ncccc1Cl (racemic),–,–,–,–,clearance [5]: 23 mL/min/kg; Vd [6]: 2.8 L/kg; bioavailability [7]: 48%
CCN(CC(O)(CNC(=O)c1cnn(-c2ccc(F)cc2)c1N)C(F)(F)F)C(=O)c1ccc(Cl)cc1 (racemic),> 10000,–,316,> 6310,–
CCN(CC(O)(CNC(=O)c1cnn(-c2ccc(F)cc2)c1N)C(F)(F)F)C(=O)c1cccnc1Cl (racemic),251,75,39.8,794,–
CCN(CC(O)(CNC(=O)c1cnn(-c2ccc(F)cc2)c1N)C(F)(F)F)C(=O)c1ccccc1 (racemic) [listing 2 of 2 here],–,88,–,–,–
CCN(CC(O)(CNC(=O)c1cnn(-c2ccc(F)cc2)c1N)C(F)(F)F)C(=O)c1ccccc1Cl (stereo in doubt; 13e) [listing 2 of 2 here],–,–,–,–,IC50 (Cytochrome P450 1A2): 100000 nM; IC50 (Cytochrome P450 2C19): 20000 nM; IC50 (Cytochrome P450 2C9): 10000 nM; IC50 (Cytochrome P450 2D6): 34000 nM; IC50 (Cytochrome P450 3A4): 4000 nM
Nc1c(C(=O)NCC(O)(CN(CCO)C(=O)c2c(Cl)cccc2Cl)C(F)(F)F)cnn1-c1ccc(F)cc1 (stereo not given),–,–,–,–,IC50 (Cytochrome P450 1A2): 100000 nM; IC50 (Cytochrome P450 2C19): 20000 nM; IC50 (Cytochrome P450 2C9): 3000 nM; IC50 (Cytochrome P450 2D6): 54000 nM; Activity (Albumin): 89%; fraction unbound [2]: 0.07; IC50 (Cytochrome P450 3A4): 100000 nM
Nc1c(C(=O)NCC(O)(CNC(=O)c2c(F)cccc2F)C(F)(F)F)cnn1-c1ccc(F)cc1 (racemic),316,80,398,> 6310,–
CCCN(CC(O)(CNC(=O)c1cnn(-c2ccc(F)cc2)c1N)C(F)(F)F)C(=O)c1c(F)cccc1F (racemic),15.8,96,15.8,25.1,clearance [5]: 36 mL/min/kg; Vd [6]: 5.3 L/kg; bioavailability [7]: 16%
CCN(CC(O)(CNC(=O)c1cnn(-c2ccc(F)cc2)c1N)C(F)(F)F)C(=O)c1ccccc1Cl (racemic),–,–,–,–,clearance [5]: 32 mL/min/kg; Vd [6]: 4 L/kg; bioavailability [7]: 25%
CCN(CC(O)(CNC(=O)c1cnn(-c2ccc(F)cc2)c1N)C(F)(F)F)C(=O)c1ccccc1S(C)(=O)=O (racemic),–,–,–,–,clearance [5]: 17 mL/min/kg; Vd [6]: 3.6 L/kg; bioavailability [7]: 77%
CCN(CC(O)(CNC(=O)c1cnn(-c2ccc(F)cc2)c1N)C(F)(F)F)C(=O)c1c(Cl)cccc1Cl (stereo not given),0.501,101,3.16,2,IC50 (Cytochrome P450 1A2): 100000 nM; IC50 (Cytochrome P450 2C19): 7000 nM; IC50 (Cytochrome P450 2C9): 800 nM; IC50 (Cytochrome P450 2D6): 89000 nM; Activity (Albumin): 95%; fraction unbound [2]: 0.01; IC50 (Cytochrome P450 3A4): 700 nM
CCN(CC(O)(CNC(=O)c1cnn(-c2ccc(F)cc2)c1N)C(F)(F)F)C(=O)c1ccc(F)cc1Cl (racemic),100,76,20,316,–
CCN(CC(O)(CNC(=O)c1cnn(-c2ccc(F)cc2)c1N)C(F)(F)F)C(=O)c1cccc(Cl)c1 (racemic),31.6,96,15.8,251,–
CCN(CC(O)(CNC(=O)c1cnn(-c2ccc(F)cc2)c1N)C(F)(F)F)C(=O)c1c(Cl)cc(Cl)cc1Cl (racemic),25.1,100,6.31,50.1,–

# — ChEMBL document CHEMBL1139273, “Aryl aminopyrazole benzamides as oral non-steroidal selective glucocorticoid receptor agonists” (Bioorg Med Chem Lett, 2009)
